Source: PMC3629974 (Journal of nuclear medicine : official publication, Society …, 2011)

Tests used:
human PKR1 = human PKR1 (Homo sapiens, UniProt Q8TCW9); assay: Competition cell-binding assay with ^125I-MIT-1 on CHO-PKR1 cells; details: PC-10 binding IC50 vs PC-7 functional IC50 (33 nM)
[1] = tested on: CFA-induced inflamed paw (PKR1-expressing); assay: Small-animal PET of CFA-induced inflammatory pain model; assay type: in vivo, C57BL/6 mice
[2] = Ex vivo biodistribution in CFA-treated mice; set-up: species or system C57BL/6 mice; details: 2 h after injection
CHO-PKR1 cells = assay: Cell uptake, internalization and efflux of ^18F-PC-10; assay type: cell-based, Chinese hamster

Chain of human PKR1 (Q8TCW9 whole entry): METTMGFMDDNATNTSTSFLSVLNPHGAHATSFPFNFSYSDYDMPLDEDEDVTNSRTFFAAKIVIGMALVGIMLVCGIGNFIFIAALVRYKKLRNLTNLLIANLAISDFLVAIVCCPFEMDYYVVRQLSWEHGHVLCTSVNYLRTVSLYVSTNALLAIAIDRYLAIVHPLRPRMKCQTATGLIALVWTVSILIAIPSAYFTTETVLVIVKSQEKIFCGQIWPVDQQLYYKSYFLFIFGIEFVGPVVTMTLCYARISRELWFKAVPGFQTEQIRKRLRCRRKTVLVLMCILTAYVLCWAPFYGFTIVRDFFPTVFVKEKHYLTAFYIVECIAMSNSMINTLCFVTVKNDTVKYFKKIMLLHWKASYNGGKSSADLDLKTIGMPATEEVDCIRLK

SMILES: COc1ccc(Cn2c(NCCNC(=N)NC(=O)c3ccc(F)cc3)nc(=O)n(Cc3ccc(F)cc3)c2=O)cc1 [PC-10, N-(4-fluoro-benzoyl)-N′-{2-[5-(4-fluoro-benzyl)-1-(4-methoxy-benzyl)-4,6-dioxo-1,4,5,6-tetrahydro-[1,3,5]triazin-2-ylamino]-ethyl}-guanidine]
- binding affinity to PKR1 lower than functional IC50 of PC-7 (human PKR1): 3 fold

SMILES: COc1ccc(Cn2c(NCCNC(=N)NC(=O)c3ccc([18F])cc3)nc(=O)n(Cc3ccc(F)cc3)c2=O)cc1 [^18F-PC-10, N-(4-^18F-fluoro-benzoyl)-N′-{2-[5-(4-fluoro-benzyl)-1-(4-methoxy-benzyl)-4,6-dioxo-1,4,5,6-tetrahydro-[1,3,5]triazin-2-ylamino]-ethyl}-guanidine]
- decrease of uptake in inflamed paw by blocking ([1]; 1 h after injection, coinjected with excess PC-7): approximately 70%
- uptake in control paw ([1]; PET, 2 h after injection): 0.13 ± 0.01 %ID/g
- activity in blood [2]: 0.22 ± 0.05 %ID/g
- uptake in bone [2]: 0.69 ± 0.12 %ID/g
- uptake in kidneys [2]: 5.26 ± 1.06 %ID/g
- uptake in liver [2]: 3.80 ± 1.14 %ID/g
- uptake in salivary gland [2]: 3.05 ± 1.10 %ID/g
- time at which cell uptake reached a plateau (CHO-PKR1 cells; 37°C): 0.5 h
- time at which internalization reached a plateau (CHO-PKR1 cells; 37°C, stable up to 2 h): 0.5 h
- part of observed uptake due to internalization (CHO-PKR1 cells; acid buffer pH 2.8 wash): Approximately half
- time after medium replacement at which half of the activity was unbound (efflux) (CHO-PKR1 cells; after 2 h loading): ≤ 15 min
- time at which efflux reached a plateau (CHO-PKR1 cells; after medium replacement): 1 h
